Laboratory results: patent US20080226565A1, “Anticariogenic Proteins & Peptides & Saccharides” (priority 2004, published 2008)

Key:
Set-up in all cases: species or system human
[1] = Determination of the PF-value: Knoop micro hardness of tooth samples coated with product, then saliva and acetic acid (in-vitro)
Description: The capacity to protect teeth against caries can be measured with a technique well known in the art (U.S. Pat. No. 5,279,814). Demineralization with acid, decreases the hardness of the tooth surface. The hardness can be quantified indirectly by measuring the depth of penetration of a needle in the surface (measurement of micro hardness). With this procedure, so called “Knoop” method, the needle is penetrating the surface under the pressure of constant weight and leaves a mark on the surface that allows the calculation of the depth of penetration. The more the tooth is suffering from demineralization, the softer its surface will get and the larger the depth of penetration will be (Knoop F., Peters C. G., Emerson W. B., A Sensitive Pyramidal Diamond Tool for Identation Measurments, J. Res. Natn. Bur. Stand. 23, 39-61 (1939).
The procedure includes the determination of the hardness of a human tooth sample with the Knoop method. Subsequently, the tooth is treated with an experimental protecting product outside the oral cavity.
It is cleaned softly with a paper towel until the coating is invisible.
Subsequently the tooth sample is submerged in a batch of human saliva in order to simulate the conditions in the oral cavity. After removal from the saliva batch (after 30 min.) it is treated with acid over a constant time period of 30 min. at 37° C. The acid is washed away, the tooth is dried on air and the hardness is measured again. The change in hardness (delta P in μm) is obtained by comparing with the hardness of the tooth before treatment. This experiment is repeated on other tooth samples. The effect of acid on unprotected teeth is obtained by carrying out the same procedure but without the use of an experimental protecting product (delta Pa). The protecting capacity (“PF” protection factor) of an experimental protecting compound can be defined as: […]
The ability of a product to protect teeth (PF-value) is determined with the Knoop method. A tooth sample, size 3×3×3 mm is cut from a human tooth and embedded into polymerizing resin in such a way that the surface of the tooth sample appears on the surface of the (resin) cube after the resin has become solid. The surface of the tooth is mechanically polished with rotating silicon carbide abrasive paper (Struers P1200-P2400-P4000) and the micro hardness of the enamel is determined with a Knoop diamant needle (Leitz-Wetzlar;
microdurometer “Durimet”; weight 50 gr; penetration-time: 30 seconds (Collys et al., J. Dent. Res. 1990; 69: 458-462)).
The penetration leaves a mark on the tooth surface, which is related to the depth of penetration (μm) and which can be analyzed under the microscope. […] The determination of the depth of penetration is repeated six times on each of the tooth samples and the average value is calculated. In order to determine the effect of acid on the hardness of the surface, use is made of an acetic acid buffer from Merck (pH 5; 0.1N). One drop of acid is positioned on the enamel for a period of 30 minutes at 37° C. The sample is cleaned with demineralized water and dried. The hardness is measured again according to the method of Knoop. This procedure is repeated 4 times, which means that the sample has been subjected to acid for a total period of two hours.
A graph (Y: penetration depth μm; X: 5 treatment stages) can be made on the basis of 5 average values (each of them based on six measurement), one obtained before treatment with acid, and the other 4 obtained after each of the 4 treatment-stages with acid. A logaritmic regressionline is calculated.

[2] = In-vivo: radiated tooth samples treated with protector, 5 days in the oral cavity, Knoop hardness; details: for delta: change of hardness (increase of depth of penetration): radiation + 5 days in oral cavity, 0.1% fluoride or 4% bisphosphonate e-polylysine with CaCl2 and KH2PO4
Description: A device is constructed that can contain up to 6 experimental tooth samples for positioning in the oral cavity. […] The construction of the experimental tooths samples is outlined in chapter C.2.“Results; in-vivo experiments”. In the oral cavity, the tooth samples are positioned in the device in such a way that the enamel surfaces are subjected to physical contact with the tongue and are submerged in saliva. […] In experiments where the device is residing a long time period in the oral cavity (5 days and more), a metal network is positioned just above the surface of the experimental teeth, in order to provide support for the bacteria and stimulate it's growth path. It is also possible to measure the residual protection competence by removing the tooth samples from the oral cavity at the end of the selected residence time and treating them with acid under laboratory conditions.
The device was positioned after the lower jaw in the oral cavity for a period of five days. After removal from the oral cavity, the samples where cleaned and the hardness was measured.
(§1) Tooth samples have been cut in horizontal slices (thickness: 0.3 to 1 mm) with a Leitz 1600 tooth cutter with horizontal cutting blade; the slices are cut manually (with a bore) into small tooth samples that contain a small part of the original tooth surface. The tooth sample is positioned in a small plastic tube, that has been cut from a long plastic tube with 6 mm external diameter. The length of the tube is 3 to 6 mm. The inner part of the tube is filled with a polymer that hardens under light (Photoclearfil Bright; Kuraray). The tooth sample is positioned in the soft polymer inside the tube, in such a way that the original tooth surface is just surfacing above the tube. Finally the polymer is hardened with a light source. The tooth surface is polished with Struers silicon carbid paper (800-4000) and the hardness is measured 5 times on each of the samples under the Letiz Wetzlar microscope (weight on needle: 50 p). Tooth samples with a maximum average depth of penetration of 43 μm are retained for use in the oral cavity.
Tooth samples have been subjected to a radiation dose that is equal to the amount that is given to patients with oral cancer (20 Gray) and have been sterilized. […] A drop of the solution was positioned on the tooth surface and allowed to reside for a period of 30 minutes at 37 C.; the procedure was repeated after removal of the drop with pressured air. Finally the drop was removed, the tooth was dried on air and fixed to the device. In total six tooth samples have been fixed to the device and positioned in the oral cavity after the lower jaw. It remained in the oral cavity for a period of 5 days (day and night). After completion of the required residence time, the device was removed from the oral cavity and the experimental teeth where separated from the device and washed. The hardness was measured according to the Knoop method, six times on each of the tooth samples.
B: the stage at which the hardness of the tooth surface has been measured with the Knoop method. (before the treatment; after radiation and before addition of protector formulation to the surface; after addition of protector to the surface of the tooth and after residing five days in the oral cavity).
B: the stage at which the hardness of the tooth surface has been measured with the Knoop method.

[3] = In-vivo: residual protection, radiated samples after 5 days in oral cavity treated with acetic acid
Description: N: number of tooth samples A: hardness(μm) after radiation and 5 days residence in the oral cavity B: hardness after radiation and 5 days in the oral cavity and treatment with acetic acid

[4] = In-vivo: tooth samples treated with peptide, 12 hours in the oral cavity, then acetic acid, Knoop hardness
Procedure: In another experiment, 126 sterilized tooth samples where treated with a variety of peptides, fixed to the device and positioned after the lower jaw in the oral cavity of 5 volunteers. The device remained in the oral cavity for a period of 12 hours after which the teeth where removed, cleaned and subjected to a drop of acetic acid (0.1N, 30 min., 37° C). Subsequently the acid was removed, the teeth where cleaned and the hardness was measured (Knoop method). The depth of penetration increased 8.82 μm, 5.40 μm, 5.32 μm and 3.77 μm respectively for teeth treated as blanco with 4.2% casein phosphopeptide e-polylysine copolymer, 7.5% phosvitin and with 4.2% bisphosphonylated e-polylysine. The p-values are respectively 0.000, 0.000 and 0.004 for casein phosphopeptide e-polylysine copolymer, bisphosphonylated e-polylysine and phosvitin.
as §1
The tooth-samples are fixed to a device that has been described in the chapter “Description of the invention ( chapter: In-vivo experiments)” and the device is positioned in the oral cavity after the lower jaw.
A drop from a solution containing either, e-polylysine, CPP, bisphoshphonylated e-polylysine, casein phosphopeptide epsilon-polylysine copolymer or partially hydrolysed phosvitin has been positioned at the surface of tooth samples for a period of 30 minutes at 37 C.; the drop was removed and the procedure was repeated once more. All solutions contained also 3.1% CaCl2.2H2O and 1.7% KH2PO4 (except for the one containing e-polylysine).
The tooth surface was cleaned with a soft paper towel until it was visibly clean. Four such tooth samples where fixed to the device and located in the oral cavity behind the lower jaw. They resided in the oral cavity for a period of 12 hours (only to be removed during eating). Subsequently, they where removed, cleaned and the tooth surface was treated with a drop of acetic acid (0.1N, 30 min., 37° C.); the acid was removed, the tooth was washed with deionized water and the hardness was evaluated.
A: type of peptide ingredient in the solution (% on a w/w basis versus water). (*): the teeth where submerged (30 min.) in a saliva batch and dried afterwards on air, before they where treated with a solution that contained bisphosphonylated e-polylysine. B: Average initial hardness of the tooth surface; μm (st. dev.) C: Average hardness after treatment, after residing in the oral cavity and treatment with acid D: The average change in hardness (C−B) E: p-value (against blanco) of the Mann-Whitney statistical test F: the number of tooth samples that where treated with a specific formulation; hardness on each of the tooth samples was measured five times and an average value was calculated; most often 4 tooth samples per person; 5 volunteers participated to the experiment; the 132 tooth samples where randomized into groups (of 4 teeth) with the same average hardness value.

[5] = gel: 4.2% hydroxyethylcellulose, 0.3% NaF, pH 8.8
[6] = 4.2% w/w solution, 12 hours oral cavity, acetic acid 0.1N 30 min

[F-].[Na+] [Product IV, sodium fluoride, reference compound]
PF factor ([1]; 0.1% product/water w/w): 61
PF ([1]; gel with 0.3% sodium fluoride only): 68%
PF [1, 5]: 68.1
delta P [1, 5]: 18.8 μm
Mean hardness (depth of penetration) ([2]; after protector and 5 days oral cavity, 0.1% NaF or 4% bisphosphonate e-polylysine with CaCl2 and KH2PO4): 42.77 μm
Mean hardness (depth of penetration) ([2]; after radiation, before addition of protector (baseline of group)): 40.97 μm
delta: change of hardness ([2]; after radiation, before addition of the formulation): −0.13 μm
delta: change of hardness (increase of depth of penetration) [2]: 1.67 μm
delta: change of hardness (increase of depth of penetration) ([2]; listed as NaF): 1.8 μm
Mean hardness (depth of penetration) ([2]; start, before treatment (baseline of group)): 41.10 μm
C: B−A (increase of depth of penetration by acid) ([3]; acetic acid 0.1N, 30 min, 37° C. after 5 days in oral cavity): 6.5 μm
B: hardness after radiation and 5 days in the oral cavity and treatment with acetic acid ([3]; acetic acid 0.1N, pH 5, 30 min, 37° C.): 48.4 μm
A: hardness after radiation and 5 days residence in the oral cavity ([3]; samples later treated with acid): 41.9 μm

NC(CO)(CO)CO [Product V, Tris(hydroxymethyl)aminoethane, reference compound]
PF factor ([1]; 3.4% product/water w/w): 35

Casein phosphopeptide (CPP) [Product 1, reference compound]
C: Average hardness after treatment, after residing in the oral cavity and treatment with acid [4, 6]: 47.60 (2.53) μm
D: average change in hardness (C−B) [4, 6]: 6.78 μm
B: Average initial hardness of the tooth surface (st. dev.) ([4]; group for 4.2% solution, before treatment): 40.82 (0.73) μm

Natural phosvitin (Phos) [Product 3, reference compound]
D: average change in hardness (C−B) ([4]; 7.5% w/w solution): 5.32 μm

Partially hydrolyzed phosvitin, (Phos-h) [Product 5]
more protection competence in comparison to natural phosvitin ([1]; versus natural phosvitin): 25%

Polymerized (CPP) = (CPP)n [Product 2]
PF factor ([1]; 7.2% product/water w/w): 58
